Laboratory results: US20110105436A1, “HETEROARYL COMPOUNDS, COMPOSITIONS, AND METHODS OF USE IN CANCER TREATMENT” (AUCKLAND UNISERVICES LIMITED, priority 2008, published 2011)

What was measured:
[1] = tested on: RCC4, RCC4/VHL, SN12C and SN12C-VHL shRNA cells; experiment: Acidic vesicle organelles with acridine orange (FACS); assay type: cell-based; conditions: for effect of inhibitor on autolysosomal acidification induced by STF-62247: 2 mM 3-MA or 1 μg/ml Brefeldin A with 1.25 μM STF-62247, 20 hrs; for acridine orange staining / amount of AVOs: 1.25 μM, VHL-deficient versus wild-type VHL cells
Protocol: Quantification of Acidic Vesicle Organelles with Acridine Orange. In acridine orange-stained cells, the cytoplasm and nucleus are bright green and dim red, whereas acidic compartments are bright red. The intensity of the red fluorescence is proportional to the degree of acidity. Following 20 hours of treatment with STF-62247 or analogs, cells were stained with 1 μg/ml of acridine orange for 15 min. Cells were trypsinized and then analyzed by flow cytometry using FACScan cytometer and CellQuest software.
(§1) A. VHL-deficient RCC4 and wild-type VHL were incubated in presence of 10 μM LY294002, or 1 μg/mlBrefeldin A with 1.25 μM of STF-62247 for 20 hrs and the presence of vacuoles was examined under light microscopy. B,C. LC3 processing was evaluated by Western blot after the treatment with Brefeldin A or LY294002 in presence or absence of STF-62247 as described above. Tubulin was used as loading control. D. Cells were treated with 1.25 μM of STF-62247 with or without 2 mM of 3-MA, 1 μg/ml of Brefeldin A for 20 hrs. For the last 15 min, acidic components were stained with 1 μg/ml of acridine orange and visualized under fluorescence microscope. […] F. Quantification of the FACS analysis. The data are calculated as the average of three different experiments as relative units of treated over untreated cells. The error bars are represented as the standard error of the mean (SEM).
A. RCC4 and RCC4/VHL were treated with 1.25 μM of each 19 analogs for 20 hours and the presence of vacuoles was examined under light microscopy. B. Western blot for LC3 after treatment with each compound. Tubulin was used as loading control. Ratio is the relative from the IC50 in RCC4/VHL cells/IC50 in RCC4 cells. C. Acidic vesicle organelles (AVO) measured by FACS analysis in cells treated with 1.25 μM of STF-62247 or with compounds 21, 15, 25, 47, and 53 and stained with acridine orange.

LC3 = LC3 processing by Western blot and immunostaining; assay type: cell-based; conditions: for effect of inhibitor on vacuole formation and LC3-II induced by STF-62247: co-treatment with 1.25 μM STF-62247, 20 hrs, VHL-deficient RCC cells; for toxicity, vacuole formation and LC3-lipidated form (autophagy) of analogs: 1.25 μM, 20 hours, FIG. 5A-B
Protocol: (§2) Western blot analysis. After treatments, cells were lysed in urea buffer (9M urea, 75 mM Tris (pH 7.5), 150 mM b-mercaptoethanol), placed on ice for 10 minutes and sonicated briefly (15 seconds). Extracts were centrifugated at 8,000×g for 10 minutes to eliminate insoluble material. Lysates were quantitated using Bio-Rad protein Assay (Bio-Rad Laboratories) and 20-30 μg of proteins were separated on a 7.5% or 15% bis-acrylamide gels and then transferred onto PVDF membranes. Proteins were visualized using HIF-2α (Novus Biological), HIF-1α, pVHL and BiP (BD Biosciences), LC3 (MBL), Atg5, or α-tubulin antibodies.
Immunofluorescence staining. Cells were seeded on glass coverslips and at subconfluence, STF-62247 was added at 1.25 μM for RCC4 and 3.75 μM for SN12C. After 20 hours, cells were fixed in 3.7% formaldehyde for 10 min at room temperature and washed in PBS. Then cells were permeabilized in 0.2% Triton X-100 for 5 min at room temperature and washed in PBS. The coverslips were incubated with primary antibody LC3 diluted 1:500 in PBS containing 0.2% BSA for 1 hour at room temperature. Cells were washed three times in PBS-BSA and the bound primary antibody was detected using a fluorescein-conjugated secondary antibody (ALEXA) diluted 1:500 in PBS-BSA and incubated for 1 hour. Coverslips were washed and mounted in mounting medium from Vector Laboratories according to the manufacturer's instructions. Cells were examined with a confocal microscope
A. Phase contrast pictures of VHL-deficient RCC4 and SN12C-VHL shRNA cells and VHL-positive cells RCC4 and SN12C after 20 hrs of 1.25 μM STF-62247. B. Immunostaining for LC3 following STF-62247 treatment at 1.25 μM for 20 hrs with or without 2 mM of 3-MA in RCC4 with and without VHL cells. After treatment, cells were fixed, permeabilized and processed for the detection of punctuate staining by indirect immunofluorescence. C. Autophagic vacuoles stained with monodansylcadaverine (MDC). After STF-62247 treatment in the same conditions, MDC was added for the last 10 minutes. Cells were fixed, washed with PBS and observed directly under microscope. D. Western blot for LC3 in RCC4, RCC4/VHL, SN12C, and SN12C-VHL shRNA cells after STF-62247 treatment with or without 3-MA. Nutrient starvation (EBSS) is used as positive control. E. Western blot for LC3 in RCC4 and RCC4/VHL with different concentrations of STF-62247. Tubulin was used as loading control. F. Cell viability assay in VHL-deficient RCC4 and wild-type VHL cells treated with 1 mM of 3-MA, 1.25 μM of STF-62247 alone or in combination for 24 hrs. Viability is measured by trypan blue exclusion assay and is represented by the average of three different experiments in duplicate as the percent of treated on untreated cells. The error bars are represented as SEM.
as §1
B,C. LC3 processing was evaluated by Western blot after the treatment with U0126 or tunicamycin in presence or absence of STF-62247 as described above. Tubulin was used as loading control.

RCC4/VHL cells = experiment: XTT assay, RCC4/VHL versus RCC4 cells (selectivity ratio); assay type: cell-based; conditions: for Ratio: Table 1, selectivity ratio, IC50 in RCC4/VHL cells/IC50 in RCC4 cells
Method in brief: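 RCC4 cells with or without VHL (5000/well) exposed to serially diluted compounds for four days. Viability read as XTT metabolism (0.3 mg/ml XTT plus PMS, 1-2 h, 37 °C) at 450 nm. Ratio is IC50 in RCC4/VHL over IC50 in RCC4.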

RCC4 cells = experiment: XTT assay in VHL-deficient RCC4 cells; assay type: cell-based; conditions: Homo sapiens, 96 h, XTT assay, VHL-deficient RCC4 cells, four days
Method in brief: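 RCC4 cells with and without VHL seeded at 5000/well, then exposed next day to serially diluted compound (DMSO vehicle) for four days. Viability read by XTT (0.3 mg/ml) with PMS, 1-2 h at 37° C, absorbance at 450 nm.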

BiP (Grp78) = experiment: Western blot for BiP (ER stress); assay type: cell-based; conditions: 2 μg/ml tunicamycin, FIG. 9C
Protocol: as §2
B,C. LC3 processing was evaluated by Western blot after the treatment with U0126 or tunicamycin in presence or absence of STF-62247 as described above. Tubulin was used as loading control. D. FACS analysis to measure the acidic vesicle organelles after staining with acridine orange in SN12C and SN12C-VHL shRNA following treatment with STF-62247 for 24 hours. E. AVO quantification from the FACS analysis in A. F. Autophagic vacuoles stained with MDC. After STF-62247 treatment with or without 3-MA, NH4Cl, MDC was added the last 10 minutes. Then, cells were fixed, washed with PBS and observed directly under microscope.

[2] = tested on: VHL-deficient RCC4 and wild-type VHL cells; experiment: Cell viability by trypan blue exclusion; assay type: cell-based; conditions: 1 mM 3-MA, 1.25 μM STF-62247, 24 hours, FIG. 2F
Protocol: Cell Viability and XTT assays. For cell viability, 100,000 cells were plated in a 12-well plate. The following day, 1.25 μM STF-62247 was added in the presence or absence of 1 mM 3-MA for 24 hours at 37° C. Cells were trypsinized and counted by trypan blue exclusion. For XTT assays, 5000 RCC4 with and without VHL cells or 2,500 SN12C with and without VHL shRNA cells were plated in 96-well plates. The following day, vehicle (DMSO), STF-62247 or each of 19 analogs were added to media by serial dilution. Four days later, the media was aspirated and XTT solution containing 0.3 mg/ml of XTT (Sigma Chemical Co) in Phenol Red-free media, 20% FCS and 2.65 mg/ml N-methyl dibenzopyrazine methyl sulfate (PMS) was added to the cells and incubated at 37° C. for 1-2 hours. Metabolism of XTT was quantified by measuring the absorbance at 450 nm on a plate reader.
A. Phase contrast pictures of VHL-deficient RCC4 and SN12C-VHL shRNA cells and VHL-positive cells RCC4 and SN12C after 20 hrs of 1.25 μM STF-62247. B. Immunostaining for LC3 following STF-62247 treatment at 1.25 μM for 20 hrs with or without 2 mM of 3-MA in RCC4 with and without VHL cells. […] Viability is measured by trypan blue exclusion assay and is represented by the average of three different experiments in duplicate as the percent of treated on untreated cells. […]

Row | Molecule | effect of inhibitor on vacuole formation and LC3-II induced by STF-62247 (LC3) | Ratio (RCC4/VHL cells) | acridine orange staining / amount of AVOs [1] | toxicity, vacuole formation and LC3-lipidated form (autophagy) of analogs (LC3) | IC50 (RCC4 cells; Table 1) [µM] | other results
1 | C[C@H]1CCC/C=C/[C@@H]2C[C@H](O)C[C@H]2[C@H](O)/C=C/C(=O)O1 [Brefeldin A, reference compound] | abolished the formation of autophagic vacuoles and LC3-II |  |  |  |  | effect of inhibitor on autolysosomal acidification induced by STF-62247 [1]: resulted in a decrease in autolysosomal acidification
2 | Oc1cccc(Nc2nc(-c3ccncc3)cs2)c1 [Compound 13, 3-{[4-(4-Pyridinyl)-1,3-thiazol-2-yl]amino}phenol] |  | >3 | not influenced | no toxicity or autophagy were observed | 28.5 | 
3 | tunicamycin [reference compound] | no vacuole or LC3 processing was observed |  |  |  |  | BiP (Grp78), marker of ER stress (BiP (Grp78)): induced BiP (Grp78)
4 | Cc1ccc(Nc2nc(-c3ccncc3)cs2)cc1 [Compound 21, N-(4-Methylphenyl)-4-(4-pyridinyl)-1,3-thiazol-2-amine] |  | 20 | consistertly higher in VHL-deficient cells | induced significant vacuole formation and the LC3-lipidated form | 2.5 | IC50 ratio (wild-type VHL/VHL-deficient cells) (RCC4/VHL cells; structure-activity text on Tables 1 and 2): high ratio
5 | N#CC(=C(/N)Sc1ccccc1N)/C(C#N)=C(\N)Sc1ccccc1N [Compound U0126, reference compound] | had little effect on autophagy induced by STF-62247 |  |  |  |  | 
6 | Cn1cnc(N)c2ncnc1-2 [Compound 3-MA, 3-methyladenine, reference compound] | abrogated |  |  |  |  | effect of inhibitor on autolysosomal acidification induced by STF-62247 [1]: resulted in a decrease in autolysosomal acidification; viability of VHL-deficient cells treated with STF-62247 in presence of inhibitor [2]: partially restored
7 | COc1cccc(Nc2nc(-c3ccncc3)cs2)c1 [Compound 15, N-(3-Methoxyphenyl)-4-(4-pyridinyl)-1,3-thiazol-2-amine] |  | 17 | consistertly higher in VHL-deficient cells | induced significant vacuole formation and the LC3-lipidated form | 3 | 
8 | Cc1cc(Nc2nc(-c3ccncc3)cs2)ccc1O [Compound 53, 2-Methyl-4-{[4-(4-pyridinyl)-1,3-thiazol-2-yl]amino}phenol] |  | 2.3 | not influenced | no toxicity or autophagy were observed | 70 | 
9 | Oc1ccc(Nc2nc(-c3ccncc3)cs2)cc1 [Compound 25, 4-{[4-(4-Pyridinyl)-1,3-thiazol-2-yl]amino}phenol] |  | 8 | consistertly higher in VHL-deficient cells | induced significant vacuole formation and the LC3-lipidated form | 5.3 | 
10 | COc1cc(Nc2nc(-c3ccncc3)cs2)cc(OC)c1OC [Compound 63, 4-(4-Pyridinyl)-N-(3,4,5-trimethoxyphenyl)-1,3-thiazol-2-amine] |  |  |  |  | > 40 | melting point: 207 to 209 °C
11 | Cc1cccc(Nc2nc(-c3ccnc(C)c3)cs2)c1 [Compound 145, N-(3-Methylphenyl)-4-(2-methyl-4-pyridinyl)-1,3-thiazol-2-amine] |  |  |  |  |  | melting point: 198 to 200 °C; IC50 (RCC4 cells; Table 2): > 40 µM
12 | Fc1cccc(F)c1Nc1nc(-c2ccncc2)cs1 [Compound 139, N-(2,6-Difluorophenyl)-4-(4-pyridinyl)-1,3-thiazol-2-amine] |  |  |  |  | > 40 | melting point: 209 to 211 °C
